Experimental data: the NIST ThermoML archive (doi:10.1016/j.jct.2017.02.024)
± gives the expanded uncertainty stated by the source.

Assay: mn = molality of the nth substance listed, in mol/kg
Conditions: 100 kPa, Liquid; for viscosity: Capillary tube (Ostwald / Ubbelohde) method; for mass density: Vibrating tube method

NCC(=O)O [2-aminoacetic acid] + O
Conditions	mass density, 293.15 K [kg/m3]	mass density, 303.15 K [kg/m3]	mass density, 313.15 K [kg/m3]	mass density, 323.15 K [kg/m3]	viscosity, 293.15 K [mPa·s]	viscosity, 303.15 K [mPa·s]	viscosity, 313.15 K [mPa·s]	viscosity, 323.15 K [mPa·s]
m1 = 0.1	1001.39 ± 1.4	998.81 ± 1.4	–	991.09 ± 1.4	1.014 ± 0.041	0.809 ± 0.033	0.663 ± 0.027	0.556 ± 0.023
m1 = 0.2	1004.56 ± 1.4	1001.91 ± 1.4	–	994.12 ± 1.4	1.027 ± 0.042	0.82 ± 0.033	0.673 ± 0.027	0.565 ± 0.023
m1 = 0.3	1007.67 ± 1.4	1004.97 ± 1.4	1001.42 ± 1.4	997.11 ± 1.4	1.041 ± 0.042	0.832 ± 0.034	0.683 ± 0.028	0.574 ± 0.023
m1 = 0.4	1010.73 ± 1.4	1007.98 ± 1.4	1004.4 ± 1.4	1000.05 ± 1.4	1.055 ± 0.043	0.844 ± 0.034	0.693 ± 0.028	0.582 ± 0.024
m1 = 0.5	1013.74 ± 1.4	1010.94 ± 1.4	1007.32 ± 1.4	1002.96 ± 1.4	1.07 ± 0.043	0.856 ± 0.035	0.704 ± 0.029	0.591 ± 0.024
m1 = 0.6	1016.72 ± 1.4	1013.87 ± 1.4	1010.23 ± 1.4	1005.85 ± 1.4	1.085 ± 0.044	0.868 ± 0.035	0.714 ± 0.029	0.6 ± 0.024
m1 = 0.7	1019.66 ± 1.4	1016.75 ± 1.4	1013.06 ± 1.4	1008.69 ± 1.4	1.101 ± 0.045	0.881 ± 0.036	0.724 ± 0.029	0.61 ± 0.025

OC[C@@H](O)[C@@H](O[C@H]1O[C@H](CO)[C@@H](O)[C@H](O)[C@H]1O)[C@H](O)[C@@H](O)CO [4-O-α-D-glucopyranosyl-D-glucitol] + O
Conditions	mass density, m1 = 0.2 [kg/m3]	mass density, m1 = 0.4 [kg/m3]	mass density, m1 = 0.6 [kg/m3]	mass density, m1 = 0.8 [kg/m3]	mass density, m1 = 1 [kg/m3]	viscosity, m1 = 0.2 [mPa·s]	viscosity, m1 = 0.4 [mPa·s]	viscosity, m1 = 0.6 [mPa·s]	viscosity, m1 = 0.8 [mPa·s]	viscosity, m1 = 1 [mPa·s]
293.15 K	1022.97 ± 1.4	1045.59 ± 1.4	1066.2 ± 1.4	1085.31 ± 1.4	1102.86 ± 1.4	1.202 ± 0.049	1.457 ± 0.059	1.761 ± 0.071	2.142 ± 0.087	2.61 ± 0.11
303.15 K	1020.13 ± 1.4	1042.41 ± 1.4	1062.88 ± 1.4	1081.69 ± 1.4	1099.07 ± 1.4	0.95 ± 0.038	1.134 ± 0.046	1.353 ± 0.055	1.626 ± 0.066	1.954 ± 0.079
313.15 K	1016.42 ± 1.4	1038.47 ± 1.4	1058.71 ± 1.4	1077.36 ± 1.4	1094.66 ± 1.4	0.77 ± 0.031	0.909 ± 0.037	1.073 ± 0.043	1.277 ± 0.052	1.511 ± 0.061
323.15 K	1012.07 ± 1.4	1033.97 ± 1.4	1054.01 ± 1.4	1072.55 ± 1.4	1089.71 ± 1.4	0.641 ± 0.026	0.747 ± 0.03	0.874 ± 0.035	1.027 ± 0.042	1.204 ± 0.049

C[C@H](N)C(=O)O [(S)-2-aminopropanoic acid] + O
Conditions	mass density, 293.15 K [kg/m3]	mass density, 303.15 K [kg/m3]	mass density, 313.15 K [kg/m3]	mass density, 323.15 K [kg/m3]	viscosity, 293.15 K [mPa·s]	viscosity, 303.15 K [mPa·s]	viscosity, 313.15 K [mPa·s]	viscosity, 323.15 K [mPa·s]
m1 = 0.1	1001.06 ± 1.4	998.5 ± 1.4	995.04 ± 1.4	990.8 ± 1.4	1.027 ± 0.042	0.817 ± 0.033	0.669 ± 0.027	0.559 ± 0.023
m1 = 0.2	1003.89 ± 1.4	1001.29 ± 1.4	997.81 ± 1.4	993.55 ± 1.4	1.053 ± 0.043	0.837 ± 0.034	0.684 ± 0.028	0.571 ± 0.023
m1 = 0.3	1006.66 ± 1.4	1004.03 ± 1.4	1000.5 ± 1.4	996.24 ± 1.4	1.079 ± 0.044	0.857 ± 0.035	0.7 ± 0.028	0.584 ± 0.024
m1 = 0.4	–	–	–	–	1.106 ± 0.045	0.878 ± 0.036	0.716 ± 0.029	0.597 ± 0.024
m1 = 0.401	1009.41 ± 1.4	1006.73 ± 1.4	1003.18 ± 1.4	998.9 ± 1.4	–	–	–	–
m1 = 0.5	1012.07 ± 1.4	1009.37 ± 1.4	1005.79 ± 1.4	1001.49 ± 1.4	1.134 ± 0.046	0.898 ± 0.036	0.733 ± 0.03	0.611 ± 0.025
m1 = 0.6	1014.71 ± 1.4	1011.97 ± 1.4	1008.36 ± 1.4	1004.08 ± 1.4	1.163 ± 0.047	0.921 ± 0.037	0.751 ± 0.03	0.624 ± 0.025
m1 = 0.7	1017.29 ± 1.4	1014.52 ± 1.4	1010.9 ± 1.4	1006.6 ± 1.4	1.193 ± 0.048	0.943 ± 0.038	0.768 ± 0.031	0.638 ± 0.026

N=C(N)NCCC[C@H](N)C(=O)O [L-arginine] + O
Conditions	mass density, 293.15 K [kg/m3]	mass density, 303.15 K [kg/m3]	mass density, 313.15 K [kg/m3]	mass density, 323.15 K [kg/m3]	viscosity, 293.15 K [mPa·s]	viscosity, 303.15 K [mPa·s]	viscosity, 313.15 K [mPa·s]	viscosity, 323.15 K [mPa·s]
m1 = 0.1	1003.16 ± 1.4	1000.56 ± 1.4	997.08 ± 1.4	992.8 ± 1.4	1.054 ± 0.043	0.837 ± 0.034	0.684 ± 0.028	0.572 ± 0.023
m1 = 0.2	1007.98 ± 1.4	1005.3 ± 1.4	1001.76 ± 1.4	997.43 ± 1.4	1.109 ± 0.045	0.879 ± 0.036	0.716 ± 0.029	0.598 ± 0.024
m1 = 0.3	1012.67 ± 1.4	1009.89 ± 1.4	1006.3 ± 1.4	1001.92 ± 1.4	1.167 ± 0.047	0.922 ± 0.037	0.751 ± 0.03	0.625 ± 0.025
m1 = 0.4	1017.19 ± 1.4	1014.33 ± 1.4	1010.71 ± 1.4	1006.3 ± 1.4	1.229 ± 0.05	0.969 ± 0.039	0.786 ± 0.032	0.653 ± 0.026
m1 = 0.5	1021.57 ± 1.4	1018.66 ± 1.4	1014.97 ± 1.4	1010.54 ± 1.4	1.296 ± 0.052	1.019 ± 0.041	0.825 ± 0.033	0.682 ± 0.028
m1 = 0.6	1025.85 ± 1.4	1022.85 ± 1.4	1019.13 ± 1.4	1014.68 ± 1.4	1.366 ± 0.055	1.069 ± 0.043	0.863 ± 0.035	0.713 ± 0.029
m1 = 0.7	1030 ± 1.4	1026.94 ± 1.4	1023.18 ± 1.4	1018.67 ± 1.4	1.435 ± 0.058	1.121 ± 0.045	0.903 ± 0.037	0.743 ± 0.03

C[C@@H](O)[C@H](N)C(=O)O [L-threonine] + O
Conditions	mass density, 293.15 K [kg/m3]	mass density, 303.15 K [kg/m3]	mass density, 313.15 K [kg/m3]	mass density, 323.15 K [kg/m3]	viscosity, 293.15 K [mPa·s]	viscosity, 303.15 K [mPa·s]	viscosity, 313.15 K [mPa·s]	viscosity, 323.15 K [mPa·s]
m1 = 0.1	1002.4 ± 1.4	999.82 ± 1.4	996.36 ± 1.4	992.09 ± 1.4	1.035 ± 0.042	0.823 ± 0.033	0.673 ± 0.027	0.563 ± 0.023
m1 = 0.2	1006.54 ± 1.4	1003.91 ± 1.4	1000.4 ± 1.4	996.09 ± 1.4	1.07 ± 0.043	0.85 ± 0.034	0.694 ± 0.028	0.579 ± 0.023
m1 = 0.3	1010.59 ± 1.4	1007.91 ± 1.4	1004.35 ± 1.4	1000.01 ± 1.4	1.105 ± 0.045	0.878 ± 0.036	0.717 ± 0.029	0.596 ± 0.024
m1 = 0.4	1014.57 ± 1.4	1011.83 ± 1.4	1008.22 ± 1.4	1003.85 ± 1.4	1.143 ± 0.046	0.907 ± 0.037	0.739 ± 0.03	0.615 ± 0.025
m1 = 0.5	1018.46 ± 1.4	1015.67 ± 1.4	1012.03 ± 1.4	1007.62 ± 1.4	1.182 ± 0.048	0.936 ± 0.038	0.763 ± 0.031	0.632 ± 0.026
m1 = 0.6	1022.28 ± 1.4	1019.43 ± 1.4	1015.75 ± 1.4	1011.32 ± 1.4	1.221 ± 0.049	0.967 ± 0.039	0.787 ± 0.032	0.651 ± 0.026
m1 = 0.7	1026.03 ± 1.4	1023.14 ± 1.4	1019.41 ± 1.4	1014.96 ± 1.4	1.263 ± 0.051	0.999 ± 0.04	0.811 ± 0.033	0.67 ± 0.027

CC(C)[C@H](N)C(=O)O [L-valine] + O
Conditions	mass density, 293.15 K [kg/m3]	mass density, 303.15 K [kg/m3]	mass density, 313.15 K [kg/m3]	mass density, 323.15 K [kg/m3]	viscosity, 293.15 K [mPa·s]	viscosity, 303.15 K [mPa·s]	viscosity, 313.15 K [mPa·s]	viscosity, 323.15 K [mPa·s]
m1 = 0.1	1000.87 ± 1.4	998.32 ± 1.4	994.85 ± 1.4	990.59 ± 1.4	1.044 ± 0.042	0.83 ± 0.034	0.678 ± 0.027	0.567 ± 0.023
m1 = 0.2	1003.5 ± 1.4	1000.9 ± 1.4	997.4 ± 1.4	993.09 ± 1.4	1.088 ± 0.044	0.864 ± 0.035	0.704 ± 0.029	0.587 ± 0.024
m1 = 0.3	1006.05 ± 1.4	1003.43 ± 1.4	999.89 ± 1.4	995.54 ± 1.4	1.134 ± 0.046	0.899 ± 0.036	0.731 ± 0.03	0.608 ± 0.025
m1 = 0.4	1008.55 ± 1.4	1005.9 ± 1.4	1002.34 ± 1.4	997.95 ± 1.4	1.183 ± 0.048	0.936 ± 0.038	0.76 ± 0.031	0.63 ± 0.026

O [water] + CC(C)[C@H](N)C(=O)O
m2 = 0
Conditions	mass density [kg/m3]	viscosity [mPa·s]
293.15 K	–	1.002 ± 0.041
303.15 K	–	0.798 ± 0.032
313.15 K	–	0.654 ± 0.026
323.15 K	988.02 ± 1.4	0.547 ± 0.022

O [water] + C[C@@H](O)[C@H](N)C(=O)O
m2 = 0
Conditions	mass density [kg/m3]	viscosity [mPa·s]
293.15 K	–	1.002 ± 0.041
303.15 K	–	0.798 ± 0.032
313.15 K	–	0.654 ± 0.026
323.15 K	988.02 ± 1.4	0.547 ± 0.022

O [water] + C[C@H](N)C(=O)O
m2 = 0
Conditions	mass density [kg/m3]	viscosity [mPa·s]
293.15 K	–	1.002 ± 0.041
303.15 K	–	0.798 ± 0.032
313.15 K	–	0.654 ± 0.026
323.15 K	988.02 ± 1.4	0.547 ± 0.022

O [water] + N=C(N)NCCC[C@H](N)C(=O)O
m2 = 0
Conditions	mass density [kg/m3]	viscosity [mPa·s]
293.15 K	–	1.002 ± 0.041
303.15 K	–	0.798 ± 0.032
313.15 K	–	0.654 ± 0.026
323.15 K	988.02 ± 1.4	0.547 ± 0.022

O [water] + NCC(=O)O
m2 = 0
Conditions	mass density [kg/m3]	viscosity [mPa·s]
293.15 K	–	1.002 ± 0.041
303.15 K	–	0.798 ± 0.032
313.15 K	–	0.654 ± 0.026
323.15 K	988.02 ± 1.4	0.547 ± 0.022

O [water] + OC[C@@H](O)[C@@H](O[C@H]1O[C@H](CO)[C@@H](O)[C@H](O)[C@H]1O)[C@H](O)[C@@H](O)CO
m2 = 0
Conditions	mass density [kg/m3]	viscosity [mPa·s]
293.15 K	–	1.002 ± 0.041
303.15 K	–	0.798 ± 0.032
313.15 K	–	0.654 ± 0.027
323.15 K	988.02 ± 1.4	0.547 ± 0.022
